Measurements taken from patent publication US20200392116A1, “SUBSTITUTED HETEROCYCLES AS c-MYC TARGETING AGENTS” (NORTHWESTERN UNIVERSITY, priority 2019, published 2020).

Test: Potency code of Table 2 (assay not stated)

Row | SMILES | Potency code
1 | CCCCOc1ccc(-c2cc(C(F)(F)F)n[nH]2)c(O)c1-c1cncc(C#N)c1 [NUCC-0201193] | ++++ (<10 ++++)
2 | CCCCCCOc1ccc(-c2cc(C(F)(F)F)n[nH]2)c(O)c1-c1cncc(C#N)c1 [NUCC-0201194] | + (>40 +)
3 | COc1ccc(-c2c(-c3ccc(OCc4ccc(Cl)cc4)cc3O)nn(C)c2C(F)(F)F)cc1OC [NUCC-0196311] | + (>40 +)
4 | Cn1nc(-c2ccc(NCc3ccc(Cl)cc3)cc2O)cc1C(F)(F)F [NUCC-0200494] | + (>40 +)
5 | C#CCC(N=[N+]=[N-])C(=O)NCCCOc1ccc(-c2cc(C(F)(F)F)nn2C)c(O)c1-c1ccc(Cl)c(C(F)(F)F)c1 (stereo not drawn) [NUCC-0201695] | + (>40 +)
6 | Cn1nc(C(F)(F)F)cc1-c1ccc(OCc2ccc(C#N)cc2)c(-c2ccc(Cl)c(C(F)(F)F)c2)c1O [NUCC-0201913] | + (>40 +)
7 | Oc1c(-c2cc(C(F)(F)F)n[nH]2)ccc(OCc2ccc(Cl)cc2)c1-c1cncc(C(F)(F)F)c1 [NUCC-0201037] | +++ (10-30 +++)
8 | Cn1nc(-c2ccc(OCc3ccc(Cl)cc3)c(-c3ccc(C(F)(F)F)cc3)c2O)cc1C(F)(F)F [NUCC-0200727] | + (>40 +)
9 | CC(C)COc1ccc(-c2cc(C(F)(F)F)n[nH]2)c(O)c1-c1cc(C(C)(F)F)cc(C(F)(F)F)c1 [NUCC-0201030] | + (>40 +)
10 | Cn1nc(C(F)(F)F)cc1-c1ccc(OCCCNC(=O)COCCOCCOCCn2cc(COc3cccc4c3C(=O)N(C3CCC(=O)NC3=O)C4=O)nn2)c(-c2ccc(Cl)c(C(F)(F)F)c2)c1O (stereo not drawn) [NUCC-0201702] | + (>40 +)
11 | Oc1ccccc1-c1cc(C(F)(F)F)n[nH]1 [NUCC-0200574] | + (>40 +)
12 | Oc1cc(NCc2ccc(Cl)cc2)ccc1-c1cc(C(F)(F)F)[nH]n1 [NUCC-0200493] | + (>40 +)
13 | Cn1cc(-c2c[nH]nc2-c2ccc(OCc3ccc(Cl)cc3)cc2O)cn1 [NUCC-0198361] | + (>40 +)
14 | Nc1nc(-c2ccc(OCc3ccc(Cl)cc3)cc2O)cc(C(F)(F)F)n1 [NUCC-0200502] | + (>40 +)
15 | CCc1ccc(Oc2c(-c3ccc(OCc4cccc(OC)c4)cc3O)nn(C)c2C(F)(F)F)cc1 [NUCC-0196298] | ++ (30-40 ++)
16 | N#Cc1cccc(-c2c(OCc3ccc(Cl)cc3)ccc(-c3cc(C(F)(F)F)[nH]n3)c2O)c1 [NUCC-0198398] | ++++ (<10 ++++)
17 | Cn1nc(C(F)(F)F)cc1-c1ccc(OCc2ccc(Cl)cc2)c(-c2cncc(C#N)c2)c1O [NUCC-0201632] | +++ (10-30 +++)
18 | Oc1cc(Nc2ccc(F)c(F)c2)ccc1-c1cc(C(F)(F)F)[nH]n1 [NUCC-0200559] | ++ (30-40 ++)
19 | N#Cc1ccc(-c2c(OCc3ccc(Cl)cc3)ccc(-c3cc(C(F)(F)F)[nH]n3)c2O)cc1 [NUCC-0198391] | ++++ (<10 ++++)
20 | C#CCOc1ccc(COc2ccc(-c3cc(C(F)(F)F)n[nH]3)c(O)c2-c2cc(C(F)(F)F)cc(C(F)(F)F)c2)cc1 [NUCC-0201219] | ++++ (<10 ++++)
21 | NC(=O)c1cc(-c2ccc(Nc3ccc(Cl)cc3)cc2O)n[nH]1 [NUCC-0200677] | + (>40 +)
22 | CC(C)CCOc1ccc(-c2cc(C(F)(F)F)nn2C)c(O)c1-c1ccc(Cl)c(C(F)(F)F)c1 [NUCC-0201635] | + (>40 +)
23 | Cn1cc(-c2cn(C)nc2-c2ccc(OCc3ccc(Cl)cc3)cc2O)cn1 [NUCC-0198362] | + (>40 +)

Row | SMILES | Potency code
24 | Cc1ccc(C)c(Oc2cn(C)nc2-c2ccc(OCc3ccc4ccccc4c3)cc2O)c1 [NUCC-0196291] | + (>40 +)
25 | Cn1cc(-c2ccc(F)cc2)c(-c2ccc(OCc3ccc(Cl)cc3)cc2O)n1 [NUCC-0196349] | + (>40 +)
26 | CC(C)(C)OC(=O)NCCOc1ccc(-c2cc(C(F)(F)F)n[nH]2)c(O)c1-c1cncc(C(F)(F)F)c1 [NUCC-0201644] | + (>40 +)
27 | Oc1c(-c2cc(C(F)(F)F)[nH]n2)ccc(OCc2ccc(Cl)cc2)c1-c1ccc(C(F)(F)F)cc1Cl [NUCC-0200737] | + (>40 +)
28 | CCc1ccc(Oc2c(-c3ccc(OCc4cccc(Cl)c4)cc3O)nn(C)c2C(F)(F)F)cc1 [NUCC-0196296] | + (>40 +)
29 | Cn1nc(C(F)(F)F)cc1-c1ccc(O)cn1 [NUCC-0200687] | + (>40 +)
30 | Cn1nc(C(F)(F)F)cc1-c1ccc(OCc2ccc(Cl)cc2)cc1N [NUCC-0200745] | + (>40 +)
31 | CCc1ccc(Oc2c[nH]nc2-c2ccc(OCc3ccc(C(F)(F)F)cc3)cc2O)cc1 [NUCC-0176244] | + (>40 +)
32 | Cn1nc(-c2ccc(Nc3ccc(Cl)cc3)cc2O)cc1C(F)(F)F [NUCC-0200492] | +++ (10-30 +++)
33 | Cn1cc(-c2ccoc2)c(-c2ccc(OCc3ccc(Cl)cc3)cc2O)n1 [NUCC-0198324] | + (>40 +)
34 | CCc1ccc(Oc2c(-c3ccccc3O)nn(C)c2C(F)(F)F)cc1 [NUCC-0200684] | + (>40 +)
35 | Cn1nc(C(F)(F)F)cc1-c1ccc(OCc2ccc(Cl)cc2)c(-c2cccnc2)c1O [NUCC-0196365] | + (>40 +)
36 | Cn1nc(-c2ccc(OCCCN)c(-c3ccc(Cl)c(C(F)(F)F)c3)c2O)cc1C(F)(F)F [NUCC-0201643] | + (>40 +)
37 | Cn1nc(C(F)(F)F)cc1-c1ccc(OCc2ccc([N+](=O)[O-])cc2)c(-c2cncc(C(F)(F)F)c2)c1O [NUCC-0201653] | +++ (10-30 +++)
38 | [N-]=[N+]=NCCOCCOCCOCCOCC(=O)Nc1ccc(COc2ccc(-c3cc(C(F)(F)F)n[nH]3)c(O)c2-c2cc(C(F)(F)F)cc(C(F)(F)F)c2)cc1 [NUCC-0201200] | + (>40 +)
39 | Cn1nc(-c2ccc(OCc3ccc(Cl)cc3)cc2O)c(Oc2ccccc2Cl)c1C(F)(F)F [NUCC-0196304] | +++ (10-30 +++)
40 | COc1ccc(COc2ccc(-c3cc(C(F)(F)F)nn3C)c(O)c2-c2cc(C(F)(F)F)cc(C(F)(F)F)c2)cc1 [NUCC-0201042] | + (>40 +)
41 | Cn1nc(C(F)(F)F)cc1-c1ccc(OCc2ccc(Cl)cc2)c(-c2ccc(C#N)cc2)c1O [NUCC-0198392] | + (>40 +)
42 | Cn1nc(C(F)(F)F)cc1-c1ccc(OCc2ccc(Cl)cc2)c(-c2ccc(C(F)(F)F)cc2Cl)c1O [NUCC-0200738] | +++ (10-30 +++)
43 | CN/N=C(\C)c1cccc(-c2c(OCc3ccc(Cl)cc3)ccc(-c3cc(C(F)(F)F)n(C)n3)c2O)c1 [NUCC-0198405] | + (>40 +)
44 | Cn1nc(C(F)(F)F)cc1-c1cnc(OCc2ccc(Cl)cc2)cn1 [NUCC-0200692] | + (>40 +)
45 | COc1ccc(CCOc2ccc(-c3cc(C(F)(F)F)n(C)n3)c(O)c2-c2cc(C(F)(F)F)cc(C(F)(F)F)c2)cc1 [NUCC-0201029] | + (>40 +)
